{"source": "patent US7504095B2", "about": "“Method for obtaining precursor Z and use thereof for the production of a means for therapy of human molybdenum cofactor deficiency” (Technische Universitaet Braunschweig, priority 2004, dated 2009)", "key": {"[1]": {"test": "Oxidation of precursor Z to compound Z in 2x PBS buffer, UV-VIS", "assay_type": "physicochemical", "method": "(a) Oxidation of precursor Z to compound Z. (b) UV-VIS absorption spectrum of 22 μM precursor Z after 17 h incubation at room temperature in 2× PBS-Buffer (pH 6.9). The spectra were recorded and indicated in time intervals following dilution in Buffer. (c) […] of oxidation of precursor Z by recording the absorption at 350 nm from the spectra shown in (b).\nIn order to obtain larger amounts, we used a bacterial strain, which enriched precursor Z on the basis of a defect in the conversion to MPT. A further improvement in the yield could be achieved by over expression of the protein MoaA and MoaC, which catalyse the first step of Moco-synthesis. This leads to an approximately 5000-fold enrichment of precursor Z in comparison to wild type cells, with an average yield of 40 μg per L E. coli culture and a final concentration of 30-140 μg/ml. […] Under physiological and aerobic conditions at pH 6.9 (2×PBS buffer) a 22 μM solution of precursor Z was oxidized within 5 h completely to compound ZBe^9. The half time of precursor Z at pH 6.9 could be determined with 62±12 (FIG. 5c)."}, "[2]": {"test": "Oxidation of precursor Z in D2O/DCl on exposure to air, followed by 1H-NMR", "assay_type": "physicochemical", "settings": "D2O and DCl, exposed to air", "method": "One- (1D) and two-dimensional (2D) ^1H-NMR-correlation spectra (COSY) were recorded at 300 K with a Bruker Avance DMX 600 NMR-spectrometer, which is linked to the dominating resonance of deuterium from the solvent D2O. Chemical shifts are indicated in ppm relative to the background signal of the solvent (4.80 ppm) and couplings in Hz. Precursor Z containing samples (100-200 μg) were freeze-dried and resuspended in 700 μl degassed D2O and 2 μl 36% DCl. For avoidance of oxidation, the pipette was gased for 5 minuites with nitrogen. These solutions were stable enough for recording both 1D- and 2D-COSY-spectra. Subsequent exposure of the solution to air caused the oxidation of the precursor Z to the well-described main single product, compound Z, and this reaction was monitored at regular intervals by recording 1D-^1H-spectra. Under normal conditions, this reaction is concluded after 14 days in D2O and DCl."}, "E. coli MPT-Synthase": {"molecular_target": "E. coli MPT-Synthase (Escherichia coli, UniProt P30749)", "sequence (P30749 whole entry)": "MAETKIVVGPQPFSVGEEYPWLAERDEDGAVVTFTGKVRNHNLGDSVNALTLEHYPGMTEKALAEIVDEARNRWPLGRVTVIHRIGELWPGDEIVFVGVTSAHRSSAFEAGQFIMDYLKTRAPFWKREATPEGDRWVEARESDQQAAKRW", "sequence (P30748 whole entry, further chain)": "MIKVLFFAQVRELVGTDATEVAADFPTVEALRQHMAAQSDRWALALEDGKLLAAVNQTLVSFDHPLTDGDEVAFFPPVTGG", "test": "In vitro conversion of precursor Z to MPT with purified MPT-synthase", "assay_type": "biochemical", "settings": "double excess of MPT-synthase, HPLC formA analysis", "text": "The biological activity of the purified precursor Z could be verified by a quantitive in vitro conversion to MPT tinder use of purified E. coli MPT-Synthase^B26 . […] In order to determine the amount of precursor Z needed for a successful reestablishment of Moco-biosynthesis in MOCS1-deficient mice, we carried out an in vitro reconstitution with various amount of precursor Z in protein-raw extract from the liver of five day old MOCS1-deficient mice carried out (FIG. 6a). In the case of the employment of 134 ng precursor Z/mg protein a near complete reestablishment of Moco-biosynthesis could be achieved, while 27 ng precursor Z led to a reconstitution of approximately 50%. The protein total concentration of the liver extract amounted to 6 mg (obtained from 50 mg total liver tissue) which necessitated a total required amount of precursor Z of 0.8 μg for each animal for complete reestablishment of the MPT-synthesis under in vitro conditions. Accordingly for an adult animal with a body weight of 20 g and an approximate mass or weight of the liver of 1 g, 16 μg precursor Z was needed for complete reestablishment, however only 3 μg for an activation of 50%. […]"}, "[3]": {"tested_on": "MPT-synthesis in MOCS1-deficient liver extracts", "test": "In vitro reconstitution of MOCS1-deficient liver extract, nit-1 reconstitution assay", "assay_type": "biochemical, mice", "method": "FIG. 6: Restoration of the MPT-biosynthesis in vitro and in vivo. (a) In vitro restoration of MOCS1-deficient liver extracts with precursor Z. Protein raw extract of a five day old MOCS1^−/− were incubated (1 h) with the indicated amounts of purified precursor Z per mg protein. Restoration of MPT-synthesis was measured by means of nit-1 reconstitution assay. (b-d) Biochemical analysis of precursor Z treated MOCS1-deficient animals. The mice were twice weekly injected with increasing amounts of precursor Z, beginning with 2 μg after birth and up to 8 μg after weaning. Between the days 25-55 after birth the treatment was stopped. On day 0 (4 hours after the last injection), 1, 4 and 7 respectively, two mice were sacrificed. Two liver samples of each animal were removed and separately further processed. Each value in the figure was thus determined four times. Total-MPT inclusive Moco (b), sulphite oxidase activity (c) and xanthine dehydrogenase (d) are indicated as percentage of the corresponding wildtype value (n=4).\nThe biological activity of the purified precursor Z could be verified by a quantitive in vitro conversion to MPT tinder use of purified E. coli MPT-Synthase^B26 . […] In order to determine the amount of precursor Z needed for a successful reestablishment of Moco-biosynthesis in MOCS1-deficient mice, we carried out an in vitro reconstitution with various amount of precursor Z in protein-raw extract from the liver of five day old MOCS1-deficient mice carried out (FIG. 6a). In the case of the employment of 134 ng precursor Z/mg protein a near complete reestablishment of Moco-biosynthesis could be achieved, while 27 ng precursor Z led to a reconstitution of approximately 50%. The protein total concentration of the liver extract amounted to 6 mg (obtained from 50 mg total liver tissue) which necessitated a total required amount of precursor Z of 0.8 μg for each animal for complete reestablishment of the MPT-synthesis under in vitro conditions. Accordingly for an adult animal with a body weight of 20 g and an approximate mass or weight of the liver of 1 g, 16 μg precursor Z was needed for complete reestablishment, however only 3 μg for an activation of 50%. […] Although the in vitro titration experiment yielded no information regarding which part of the Moco is transmitted to the Apo-sulfhite-oxidase, the investigated or established amount of precursor Z related to the maximal capacity of the MPT-production in the liver of MOCS1-deficient mice."}, "MOCS1-deficient mice [4]": {"tested_on": "MOCS1-deficient mice", "test": "Lifespan and phenotype of MOCS1-/- mice injected with precursor Z into the liver", "assay_type": "in vivo", "settings": "for Average Lifespan: injected into the liver", "method": "The half-life of sulphite oxidase in rat liver was determined to be 3-4 days^B27.\nThe lowest dose amounted to 0.2 μg precursor Z, administered every second day. […] With the administration of 1-2 μg every third day the mice achieved a greater age and were suckled until day 20-30, thereafter the MOCS1^−/ animals however appeared slower in their flight reaction and in their internalization of their environment than the corresponding control animals. This difference disappeared about day 40, after which all MOCS1^−/− animals were as agile and full of life as the control individuals. […] The injection of 2-4 μg precursor Z every third day ws found to be the most successful treatment."}, "MOCS1-deficient mice [5]": {"tested_on": "MOCS1-deficient mice", "test": "Open field test", "assay_type": "in vivo", "parameters": "dose or concentration left out as unconfirmed", "settings": "precursor Z every third day"}, "MOCS1-deficient mice [6]": {"tested_on": "MOCS1-deficient mice", "test": "Light/dark box test", "assay_type": "in vivo", "settings": "treated MOCS1-deficient mice", "method": "(§1) Avoidance of light was tested in the light/dark box, in which the animals were placed into the light area and the time was determined until the animals sought out the darker area. […] The results were compared with wild-type controls. The mice were sequentially introduced into all four sectors and the time was measured until the animals found and climbed onto the platform (FIG. 7). […] In a second test series, the average swim time was reduced to 20-25% of the first test both in the “knockout” mice as well as with the control animals. In a third test series, the platform was removed and the time was measured that the mice spent in the “correct” sector—the sector that previously contained the platform. Both groups spent approximately 50% of the time in the correct sector."}, "MOCS1-deficient mice [7]": {"tested_on": "MOCS1-deficient mice", "test": "Running wheel test", "assay_type": "in vivo", "settings": "10 and 20 RPM"}, "MOCS1-deficient mice [8]": {"tested_on": "MOCS1-deficient mice", "test": "Water labyrinth learning test", "assay_type": "in vivo", "settings": "first series of tests", "method": "FIG. 7: Ability to train precursor Z-treated MOCS1-deficient mice in a water labyrinth. The values represented a cross section of six wildtype- (wt, black bars) and six precursor Z treated MOCS1-deficient mice (MOCS1 ^−/−, white bars). […] C, time (of a total of 120 seconds), spent in the correct sector (without platform), which were learned in passes A and B.\nas §1"}, "[9]": {"settings": "adult animal, body weight 20 g, liver 1 g"}}}
{"smiles": "Nc1nc2c(c(=O)[nH]1)N[C@@H]1[C@H](N2)O[C@@H]2COP(=O)(O)O[C@@H]2C1(O)O", "note": "[precursor Z]", "values": [{"measurement": "stability under physiological conditions", "setting": "[1]; 2x PBS-Buffer pH 6.9, room temperature", "result": "stable under physiological conditions"}, {"measurement": "half time of precursor Z", "setting": "[1]; pH 6.9, 2xPBS buffer, aerobic, 22 μM, room temperature", "result": "62±12"}, {"measurement": "time to complete oxidation to compound Z", "setting": "[1]; pH 6.9, 2xPBS buffer, physiological and aerobic conditions, 22 μM solution", "result": "≤ 5", "unit": "h"}, {"measurement": "time until oxidation to compound Z is concluded", "setting": "[2]", "result": 14, "unit": "days"}, {"measurement": "conversion of precursor Z into MPT", "setting": "E. coli MPT-Synthase", "result": "almost completely"}, {"measurement": "reconstitution", "setting": "[3]; 27 ng precursor Z, liver extract of five day old MOCS1-deficient mice, 1 h", "result": "approximately 50%"}, {"measurement": "reestablishment of Moco-biosynthesis", "setting": "[3]; 134 ng precursor Z/mg protein, liver extract of five day old MOCS1-deficient mice, 1 h", "result": "near complete"}, {"measurement": "amount of precursor Z needed for an activation of 50%", "setting": "[3]; [9]", "result": 3, "unit": "µg"}, {"measurement": "amount of precursor Z needed for complete reestablishment", "setting": "[3]; [9]", "result": 16, "unit": "µg"}, {"measurement": "total required amount of precursor Z per animal for complete reestablishment of MPT-synthesis", "setting": "[3]; five day old animal, 6 mg liver extract protein, in vitro conditions", "result": 0.8, "unit": "µg"}, {"measurement": "development and weight gain", "setting": "MOCS1-deficient mice [4]; 0.2 μg every second day, 11 mice", "result": "developed normally"}, {"measurement": "Average Lifespan", "setting": "MOCS1-deficient mice [4]; 0.2 μg every second day", "result": 17.7, "unit": "days"}, {"measurement": "Average Lifespan", "setting": "MOCS1-deficient mice [4]; 1 μg (prior to weaning) and 2 μg (after weaning) every third day", "result": 32.9, "unit": "days"}, {"measurement": "Average Lifespan", "setting": "MOCS1-deficient mice [4]; 1 μg every third day", "result": 25.2, "unit": "days"}, {"measurement": "Average Lifespan", "setting": "MOCS1-deficient mice [4]; 2 μg every second day", "result": 47.4, "unit": "days"}, {"measurement": "fraction of treated animals that died between day 20 and 40", "setting": "MOCS1-deficient mice [4]; 1-2 μg every third day", "result": "Approximately half"}, {"measurement": "deaths between days 40-70", "setting": "MOCS1-deficient mice [4]; 2-4 μg every third day", "result": "no animal died"}, {"measurement": "offspring of pairings of treated animals", "setting": "MOCS1-deficient mice [4]; 2-4 μg every third day", "result": "normally developed, healthy off-spring"}, {"measurement": "difference in weight, behavior or other phenotypic characteristics versus wild type or heterozygous siblings", "setting": "MOCS1-deficient mice [4]; prior to weaning", "result": "no difference could be determined"}, {"measurement": "open field: movement, learning and social behavior versus wildtype", "setting": "MOCS1-deficient mice [5]", "result": "no significant differences"}, {"measurement": "light/dark box: time until seeking the darker area versus wild type", "setting": "MOCS1-deficient mice [6]", "result": "no significant difference"}, {"measurement": "running wheel: limitations of movement", "setting": "MOCS1-deficient mice [7]", "result": "Limitations of movement were not shown"}, {"measurement": "water labyrinth: finding the platform versus wild-type controls", "setting": "MOCS1-deficient mice [8]", "result": "more rapidly than the wild-type control animals"}]}
